Measured values published in patent US20060020027A1, “Use of curcumanoids as histone acetyltransferases (HATs) inhibitors” (priority 2004, published 2006).

What was measured:
[1] = test system: transcription from DNA template; test: In vitro transcription from DNA template; assay type: biochemical; conditions: even at 300 μM
Description: (§1) In vitro Transcription Assay: Transcription assays were carried out as described elsewhere (9) with the necessary modifications. The reconstituted chromatin template (containing 30 ng DNA) or an equimolar amount of histone—free DNA was incubated with 50 ng of activator (Gal4-VP16) in a buffer containing 4 mM HEPES (pH 7.8), 20 mM KCl, 2 mM DTT, 0.2 mM PMSF, 10 mM sodium butyrate, 0.1 mg/ml bovine serum albumin, 2% glycerol. […] HeLa nuclear extract (5 μl, which contains 8 mg/ml protein) was added then to initiate the preinitiation complex formation. Transcription reaction was started by the addition of NTP-mix and α-[^32P] UTP after the preinitiation complex formation and incubated further for 40 min at 30° C. For loading control separate reaction was setup with ˜25 ng of supercoiled ML200 DNA, and the transcription assay was carried out as described above, without the addition of the activator (Gal4-VP16) and 2 μl of this reaction was added to each of the transcription reactions. […] Transcripts were analysed by 5% Urea-PAGE and quantification of transcription was done by phosphoimager (Fuji) analysis. […]
(§2) (A), Schematic representation of the in vitro transcription protocol. […] The in vitro transcription reaction mixtures were analyzed on 5% urea-acrylamide gel and further processed by autoradiography.

SupT1 cells = test: Trypan blue exclusion analysis of viable cells; assay type: cell-based; conditions: 100 μM curcumin, 48 hrs
Description: Various experimental formats have been used to evaluate infection of target cells by HIV or inhibition of the viral infection in the presence of an anti-viral compound (44, 45). The standard format is to add titered viral stock to the target cells at a known multiplicity of infection (MOI) in the presence or absence of an anti-viral compound and monitor the synthesis of the viral structural protein p24 or the enzyme reverse transcriptase (46, 47). In the natural context, the viral transfer is more efficient through cell-to-cell contact rather than free virus infecting a target cell. Prevention of the viral transfer between cells is technically more difficult than neutralizing the free virus. SupT1 cells are highly […] for HIV-1 and these cells make numerous and large syncytia when infected with the virus. Taking advantage of this property, we co-cultured SupT1 cells in the presence of H9/HTLV-IIIb NIH 1983 cells that produce a T-cell tropic virus. […] To rule out the possibility of cytotoxicity and cell death, we determined the number of viable cells in all the wells using a trypan blue exclusion analysis.

[2] = target: T1, p300 (substrate HIV-Tat protein) (Homo sapiens, UniProt Q09472); test: Acetylation of Tat protein by p300 (HAT assay); assay type: biochemical; conditions: […] and 50 μM curcumin
T1 construct: made in house
T1 sequence (Q09472 whole entry, species assumed): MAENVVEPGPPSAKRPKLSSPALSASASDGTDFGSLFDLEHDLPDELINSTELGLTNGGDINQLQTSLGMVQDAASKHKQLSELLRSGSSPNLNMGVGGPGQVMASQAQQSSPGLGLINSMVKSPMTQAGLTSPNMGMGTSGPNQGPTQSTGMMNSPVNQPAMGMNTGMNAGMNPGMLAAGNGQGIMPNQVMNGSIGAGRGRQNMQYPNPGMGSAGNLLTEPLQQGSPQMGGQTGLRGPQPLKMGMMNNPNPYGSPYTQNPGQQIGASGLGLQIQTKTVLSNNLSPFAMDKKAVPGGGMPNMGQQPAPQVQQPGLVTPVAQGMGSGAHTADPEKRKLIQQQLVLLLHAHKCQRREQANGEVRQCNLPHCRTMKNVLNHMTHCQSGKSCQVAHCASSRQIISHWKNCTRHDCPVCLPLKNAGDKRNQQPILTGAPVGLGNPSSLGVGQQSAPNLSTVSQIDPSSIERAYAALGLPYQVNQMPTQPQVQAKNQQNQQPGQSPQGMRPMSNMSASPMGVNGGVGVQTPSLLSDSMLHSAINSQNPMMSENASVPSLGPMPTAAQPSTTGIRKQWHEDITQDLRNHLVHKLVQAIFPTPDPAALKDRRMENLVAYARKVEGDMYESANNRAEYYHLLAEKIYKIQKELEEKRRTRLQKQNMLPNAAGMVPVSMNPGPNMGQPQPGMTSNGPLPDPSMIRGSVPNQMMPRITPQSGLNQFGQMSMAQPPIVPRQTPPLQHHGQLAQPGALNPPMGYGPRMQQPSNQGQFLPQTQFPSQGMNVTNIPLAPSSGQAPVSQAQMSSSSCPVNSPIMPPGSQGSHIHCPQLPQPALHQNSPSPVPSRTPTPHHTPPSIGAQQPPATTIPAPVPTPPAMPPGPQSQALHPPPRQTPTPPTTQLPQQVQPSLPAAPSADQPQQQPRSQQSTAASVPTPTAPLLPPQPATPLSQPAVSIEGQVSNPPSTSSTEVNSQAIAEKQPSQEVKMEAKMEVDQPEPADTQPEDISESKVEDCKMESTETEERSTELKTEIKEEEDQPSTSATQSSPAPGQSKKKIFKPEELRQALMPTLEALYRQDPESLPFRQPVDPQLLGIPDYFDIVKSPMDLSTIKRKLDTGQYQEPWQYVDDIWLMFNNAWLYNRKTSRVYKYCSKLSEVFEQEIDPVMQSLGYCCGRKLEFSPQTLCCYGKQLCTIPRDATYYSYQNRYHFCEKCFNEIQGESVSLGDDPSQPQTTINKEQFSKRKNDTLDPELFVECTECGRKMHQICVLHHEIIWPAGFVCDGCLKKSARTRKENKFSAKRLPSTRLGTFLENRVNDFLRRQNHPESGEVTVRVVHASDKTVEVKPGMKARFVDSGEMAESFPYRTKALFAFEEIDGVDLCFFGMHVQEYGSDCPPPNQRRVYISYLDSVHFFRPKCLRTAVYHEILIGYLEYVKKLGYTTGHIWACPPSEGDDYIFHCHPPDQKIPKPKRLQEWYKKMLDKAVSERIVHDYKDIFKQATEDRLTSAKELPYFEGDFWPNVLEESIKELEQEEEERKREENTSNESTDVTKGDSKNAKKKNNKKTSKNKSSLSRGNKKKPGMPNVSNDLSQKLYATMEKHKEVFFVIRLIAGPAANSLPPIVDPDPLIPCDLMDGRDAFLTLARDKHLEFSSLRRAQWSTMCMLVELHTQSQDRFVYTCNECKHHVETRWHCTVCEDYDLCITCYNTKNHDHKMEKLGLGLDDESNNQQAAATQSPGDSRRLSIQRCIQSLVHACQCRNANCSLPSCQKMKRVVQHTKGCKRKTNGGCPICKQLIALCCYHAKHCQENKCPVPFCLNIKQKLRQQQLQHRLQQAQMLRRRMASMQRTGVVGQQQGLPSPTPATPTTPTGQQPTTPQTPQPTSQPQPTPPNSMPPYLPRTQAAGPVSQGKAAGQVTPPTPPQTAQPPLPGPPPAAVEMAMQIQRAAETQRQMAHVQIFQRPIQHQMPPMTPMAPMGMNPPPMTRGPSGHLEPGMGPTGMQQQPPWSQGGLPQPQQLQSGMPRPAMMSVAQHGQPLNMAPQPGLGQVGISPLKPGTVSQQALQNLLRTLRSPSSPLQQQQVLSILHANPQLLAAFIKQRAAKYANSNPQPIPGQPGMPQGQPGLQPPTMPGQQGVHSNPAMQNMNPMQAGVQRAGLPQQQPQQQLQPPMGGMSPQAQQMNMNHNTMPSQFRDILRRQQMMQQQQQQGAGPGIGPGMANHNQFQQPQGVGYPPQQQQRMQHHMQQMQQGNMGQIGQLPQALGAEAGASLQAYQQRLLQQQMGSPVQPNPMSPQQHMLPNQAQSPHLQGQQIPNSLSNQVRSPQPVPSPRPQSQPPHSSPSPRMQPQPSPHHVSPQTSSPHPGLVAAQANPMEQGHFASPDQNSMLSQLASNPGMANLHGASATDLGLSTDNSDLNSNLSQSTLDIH
Description: (§3) Histone acetyltransferase Assay: HAT assays were performed as described previously (30). […] The reaction mixture was then blotted onto P-81 (Whatman) filter paper and radioactive counts were recorded on a Wallac 1409 liquid scintillation counter. The radiolabeled acetylated histones were visualized by resolving on 15% SDS-polyacrylamide gel and subjected to fluorography followed by autoradiography.
(B), the percentage of acetylation was calculated in each of the cases by accounting for the corrections of acetylation in the case of Tat alone.

[3] = test system: acetylation of histones in HeLa cells; test: In vivo histone acetylation in cells (AUT gel and western blotting); assay type: cell-based
Description: Acid/Urea/Triton (A UT) polyacrylamide gel electrophoresis and Western Blotting for in vivo acetylated histones: HeLa cells (3×10^6 cells per 90 mm dish) were seeded overnight and histones were extracted from 24 hours of compound treated cells as reported earlier (29,32). Briefly, cells were harvested, washed in ice-cold buffer A (150 mM KCl, 20 mM HEPES, pH 7.9, 0.1 mM EDTA and 2.5 mM MgCl2) and lysed in buffer A containing 250 mM sucrose and 1% (v/v) Triton X 100. Nuclei were recovered by centrifugation, washed, and proteins were extracted for 1 h using 0.25 M HCl. The proteins were precipitated with 25% (w/v) trichloroacetic acid (TCA) and sequentially washed with ice-cold acidified acetone (20 μl of 12N HCl in 100 ml acetone), and acetone, air-dried and dissolved in the sample buffer (5.8 M urea, 0.9 M glacial acetic acid, 16% glycerol, and 4.8% 2-mercaptoethanol). The histones (equal amounts in all lanes) were resolved on AUT gel as described elsewhere (33,34).
For western blotting, the quantitated protein samples were run on a 12% SDS-polyacrylamide gel and following electrophoresis, proteins on the gel were electrotransferred onto an immobilon membrane (PVDF; Millipore Corp., Bedford, Mass.). The membranes were then blocked in 5% skim milk powder solution in 1×PBS containing 0.05% Tween 20 and then immunoblotted with anti-acetyl H3 (Calbiochem), anti-acetyl H4 (a kind gift from Dr. Alaine Verrault) and anti-H3 respectively. Detection was performed using goat anti-rabbit secondary antibody (Bangalore Genei) and bands were visualized by ECL detection system (Pierce).
(B) HeLa cells were treated as indicated, for 24 hours, histones were extracted and separated on an 18% acid/urea/triton (AUT) PAGE. The protein bands were visualized by Coomassie brilliant blue staining. […] Asterisk (*) indicates hyperacetylation of histones in response to HDAC inhibition by TSA and sodium butyrate. […] (C). The acid-extracted histones were resolved over 12% SDS-PAGE and were analyzed by western blot using antibodies against acetylated histone H3 and H4. Loading and transfer of equal amounts of protein were confirmed by immunodetection of histone H3. (D) 293 T cells were transiently transfected with CMV-p53 and CMV-p300 either alone or in combination as indicated. […] The p53 protein was immunoprecipitated from the cell lysates using p53 monoclonal antibody and acetylation status was analyzed by western blotting. Lanes 1 and 4, transfection with p53 alone; lanes 2 and 5, co-transfection with p53 and p300; lanes 3 and 6, transfection with p300 alone. (IP:Immunoprecipitation and IB: Immunoblotting).

CBP = CBP (Homo sapiens, UniProt Q92793); test: Histone acetyltransferase (HAT) assay with CBP; assay type: biochemical; conditions: core histones
CBP, sequence (Q92793 whole entry): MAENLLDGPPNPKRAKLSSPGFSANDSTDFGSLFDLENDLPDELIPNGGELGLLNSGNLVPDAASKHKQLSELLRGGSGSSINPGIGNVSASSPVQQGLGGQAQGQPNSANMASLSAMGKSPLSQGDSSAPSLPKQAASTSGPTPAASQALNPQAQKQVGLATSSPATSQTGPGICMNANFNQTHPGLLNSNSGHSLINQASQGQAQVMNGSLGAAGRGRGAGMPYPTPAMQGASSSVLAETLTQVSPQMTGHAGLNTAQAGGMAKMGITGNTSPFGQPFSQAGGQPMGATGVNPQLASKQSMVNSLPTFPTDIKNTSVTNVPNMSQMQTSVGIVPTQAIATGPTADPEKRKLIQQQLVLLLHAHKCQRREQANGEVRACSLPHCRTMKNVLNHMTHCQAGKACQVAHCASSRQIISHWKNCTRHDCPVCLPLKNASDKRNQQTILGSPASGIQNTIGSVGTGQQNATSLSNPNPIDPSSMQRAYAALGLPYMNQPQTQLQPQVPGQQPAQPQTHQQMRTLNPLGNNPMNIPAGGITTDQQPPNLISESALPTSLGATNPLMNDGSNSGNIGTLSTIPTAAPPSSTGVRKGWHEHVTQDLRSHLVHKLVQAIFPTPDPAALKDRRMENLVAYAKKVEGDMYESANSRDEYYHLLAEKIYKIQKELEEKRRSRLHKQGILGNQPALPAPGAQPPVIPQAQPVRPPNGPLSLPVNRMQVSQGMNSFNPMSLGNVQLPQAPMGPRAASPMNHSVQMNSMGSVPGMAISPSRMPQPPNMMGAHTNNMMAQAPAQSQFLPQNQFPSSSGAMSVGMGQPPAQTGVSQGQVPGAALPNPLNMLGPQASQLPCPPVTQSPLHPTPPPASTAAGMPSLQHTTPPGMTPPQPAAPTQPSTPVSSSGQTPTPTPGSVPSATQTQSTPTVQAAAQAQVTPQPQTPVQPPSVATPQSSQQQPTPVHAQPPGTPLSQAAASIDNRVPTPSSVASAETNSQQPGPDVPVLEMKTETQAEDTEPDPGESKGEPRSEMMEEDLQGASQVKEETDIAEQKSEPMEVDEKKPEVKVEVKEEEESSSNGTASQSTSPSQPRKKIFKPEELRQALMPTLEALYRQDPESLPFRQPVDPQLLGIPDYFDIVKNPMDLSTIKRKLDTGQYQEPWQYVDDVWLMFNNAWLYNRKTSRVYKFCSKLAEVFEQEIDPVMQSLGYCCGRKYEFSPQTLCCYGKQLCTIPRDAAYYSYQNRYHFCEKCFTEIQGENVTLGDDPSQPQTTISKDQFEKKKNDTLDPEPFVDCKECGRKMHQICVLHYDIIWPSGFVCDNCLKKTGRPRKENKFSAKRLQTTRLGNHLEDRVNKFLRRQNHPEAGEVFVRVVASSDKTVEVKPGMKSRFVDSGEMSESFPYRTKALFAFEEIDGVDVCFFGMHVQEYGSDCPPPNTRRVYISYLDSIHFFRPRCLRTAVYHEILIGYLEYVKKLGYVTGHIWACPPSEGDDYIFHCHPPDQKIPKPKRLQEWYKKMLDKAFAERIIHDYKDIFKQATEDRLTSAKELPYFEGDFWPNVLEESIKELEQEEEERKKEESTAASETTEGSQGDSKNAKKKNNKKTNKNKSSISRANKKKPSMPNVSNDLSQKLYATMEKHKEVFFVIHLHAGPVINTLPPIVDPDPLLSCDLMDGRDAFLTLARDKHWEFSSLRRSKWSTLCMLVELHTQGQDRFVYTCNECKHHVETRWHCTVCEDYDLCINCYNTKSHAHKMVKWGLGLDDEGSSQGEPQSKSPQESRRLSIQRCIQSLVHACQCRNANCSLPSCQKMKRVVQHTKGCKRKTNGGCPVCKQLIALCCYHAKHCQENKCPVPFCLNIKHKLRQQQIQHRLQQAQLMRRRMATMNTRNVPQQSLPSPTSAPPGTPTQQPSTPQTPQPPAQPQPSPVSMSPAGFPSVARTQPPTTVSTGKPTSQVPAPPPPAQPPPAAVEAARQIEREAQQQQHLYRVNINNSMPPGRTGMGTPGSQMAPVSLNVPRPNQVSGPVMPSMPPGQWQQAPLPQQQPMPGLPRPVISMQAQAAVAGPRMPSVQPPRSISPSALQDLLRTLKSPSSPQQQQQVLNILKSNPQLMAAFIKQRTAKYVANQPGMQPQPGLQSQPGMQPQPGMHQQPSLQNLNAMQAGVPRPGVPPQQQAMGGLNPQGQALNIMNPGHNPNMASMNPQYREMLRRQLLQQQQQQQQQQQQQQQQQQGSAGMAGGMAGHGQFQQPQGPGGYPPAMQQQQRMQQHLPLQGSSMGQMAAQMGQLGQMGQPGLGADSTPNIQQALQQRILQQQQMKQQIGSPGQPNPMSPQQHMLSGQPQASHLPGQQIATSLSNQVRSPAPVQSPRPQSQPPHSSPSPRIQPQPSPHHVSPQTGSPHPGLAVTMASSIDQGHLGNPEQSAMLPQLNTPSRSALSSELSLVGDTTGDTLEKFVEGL
Description: as §3

[4] = test system: HIV-1 (H9/HTLV-IIIb NIH 1983 cells cocultured with SupT1 cells); test: Syncytium inhibition assay; assay type: cell-based; conditions: 12 h
Description: Syncytium inhibition assay: The cell lines SupT1 and H9/HTLV-IIIb NIH 1983 were obtained from The AIDS Research and Reference Reagent Program. H9/HTLV-IIIb NIH 1983 cells carrying a stably integrated provirus were cocultured with excess numbers of SupT1 cells at a ration of 1:200 or 1:400. A total of […] were seeded per well in a 24-well plate and cultured in RPMI medium supplemented with 10% fetal calf serum and antibiotics. […] All the wells received the same amount of DMSO including the control wells. Formation of syncytia was visible under light microscope within 12 hrs. The total number of syncytia in 10 representative wells was counted at different time points (12, 24 and 48 h) and data for 12 h time point are presented. Identical results were obtained at other time points. All the assays were performed in triplicate wells and the experiment was performed two times.
(A), H9/HTLV-IIIb NIH 1983 carrying stable integrated virus were cocultured with excess numbers of SupT1 cells at 1:200 or 1:400 ratio. A total of 0.1×10^6 cells were seeded per well. […] Formation of syncytia is visible under light microscope within 12 hrs. The total number of syncytia in 10 representative wells was counted and presented. The data are representative of 2 independent experiments.

[5] = test system: acetylation of p53 in 293 T cells; test: p53 acetylation in transfected cells (immunoprecipitation, western blotting); assay type: cell-based; conditions: 24 hours
Description: 293 T cells were transfected with CMV-p53 and CMV-p300 using Lipofectamine 2000 reagent (Invitrogen) according to the manufacturer's instructions. […] The cells were harvested using RIPA buffer (150 mM NaCl, 50 mM Tris pH 7.4, 1% NP40, 0.1% Sodium deoxycholate, 1 mM EDTA, 0.5 μg/ml leupeptin, 0.5 μg/ml aprotinin and 0.5 μg/ml pepstatin) and the p53 protein was immunoprecipitated from the lysates using mouse monoclonal anti-p53 antibody, DO1 (oncogene). The immunocomplexes were bound on protein G-sepharose beads (Amersham Pharmacia) for 12 hours at 4° C., washed 3 times with RIPA buffer and subjected to SDS-PAGE on a 10% gel followed by western blotting using mouse monoclonal anti-p53 antibody, pAb421 or mouse monoclonal anti-acetylated lysine antibody.
(B) HeLa cells were treated as indicated, for 24 hours, histones were extracted and separated on an 18% acid/urea/triton (AUT) PAGE. The protein bands were visualized by Coomassie brilliant blue staining. […] Asterisk (*) indicates hyperacetylation of histones in response to HDAC inhibition by TSA and sodium butyrate. […] (C). The acid-extracted histones were resolved over 12% SDS-PAGE and were analyzed by western blot using antibodies against acetylated histone H3 and H4. […] The p53 protein was immunoprecipitated from the cell lysates using p53 monoclonal antibody and acetylation status was analyzed by western blotting. […]

p300 = p300 (Homo sapiens, UniProt Q09472); test: Histone acetyltransferase (HAT) assay, filter binding and gel, with p300; assay type: biochemical; conditions: varying acetyl CoA or histone concentration; 25 and 30 μM curcumin
p300, sequence (Q09472 whole entry, species assumed): as the sequence (Q09472 whole entry, species assumed) above
Description: The results were plotted using the Graph Pad Prism software.

PCAF = PCAF (Homo sapiens, UniProt Q92831); test: Histone acetyltransferase (HAT) assay with PCAF; assay type: biochemical; conditions: 100 μM curcumin
Description: as §3

HeLa cells = test: Apoptosis assay (Hoechst staining, nuclear fragmentation); assay type: cell-based; conditions: 24 hours exposure to 75-100 μM
Description: Apoptosis assay: Curcumin-induced apoptosis was monitored by the extent of nuclear fragmentation. Nuclear fragmentation was visualized by Hoechst staining of apoptotic nuclei. The apoptotic cells were collected by centrifugation, washed with PBS and fixed in 4% paraformaldehyde for 20 minutes at room tempertature. Subsequently the cells were washed and resuspended in 20 μl PBS before depositing it on poly lysine-coated coverslips and were left to adhere on cover slips for 30 min at room temperature after which the cover slips were washed twice with PBS. The adhered cells were then incubated with 0.1% Triton X-100 for 5 min at room temperature and rinsed with PBS for three times. The coverslips were treated with Hoechst 33258 for 30 minutes at 37° C., rinsed with PBS and mounted them on slides with glycerol-PBS and processed as described previously (29).
Arrows indicate apoptotic nuclear fragmentation

[6] = test system: p300 HAT activity dependent chromatin transcription; test: In vitro transcription from chromatin template; assay type: biochemical
Description: In Vitro Chromatin Assembly: Chromatin template for in vitro transcription experiments was assembled and characterized as described earlier (9).
as §1, with “C.” for “C. For loading control separate reaction was setup with ˜25 ng of supercoiled ML200 DNA, and the transcription assay was carried out as described above, without the addition of the activator (Gal4-VP16) and 2 μl of this reaction was added to each of the transcription reactions.”
as §2

[7] = test system: histone methyltransferase enzymes of HeLa nuclear extract; test: Histone methyltransferase assay with HeLa nuclear extract; assay type: biochemical; conditions: 50 and 100 μM curcumin
Description: (§4) Histone methyltransferase and deacetylase Assays: Histone methyltransferase assays were performed in a 30 μl reaction. […] After the initial incubation, 1 μl of 8.3 Ci/mmol ^3H—S— Adenosyl Methionine was added to the reaction mixtures and the incubation continued for 1 hour (in the case of nuclear extract) or for 15 minutes (in the case of G9a). The reaction products were TCA precipitated, resolved on 15% SDS-PAGE and subjected to fluorography followed by autoradiography.
(§5) The reaction products were TCA precipitated, resolved on 15% SDS-PAGE and subjected to fluorography followed by autoradiography.

[8] = target: T2, lysine methyltransferase G9a (Homo sapiens, UniProt Q96KQ7); test: Histone methyltransferase assay with G9a; assay type: biochemical; conditions: 50 and 100 μM curcumin
T2 construct: bacterially expressed HMTase domain of G9a fused to GST (31); GST; made in house
T2 sequence (Q96KQ7 830-1209 limits assumed): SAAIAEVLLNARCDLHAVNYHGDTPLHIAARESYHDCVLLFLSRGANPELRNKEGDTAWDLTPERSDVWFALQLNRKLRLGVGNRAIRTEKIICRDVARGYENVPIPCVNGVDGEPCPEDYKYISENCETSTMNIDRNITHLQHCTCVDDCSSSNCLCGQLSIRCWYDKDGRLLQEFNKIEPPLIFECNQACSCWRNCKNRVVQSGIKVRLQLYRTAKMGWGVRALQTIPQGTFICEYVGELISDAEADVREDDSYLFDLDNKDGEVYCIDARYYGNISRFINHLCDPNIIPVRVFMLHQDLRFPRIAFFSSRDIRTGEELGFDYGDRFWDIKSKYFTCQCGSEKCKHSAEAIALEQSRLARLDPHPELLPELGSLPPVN
Description: as §4, §5

[9] = HeLa cells, TSA and sodium butyrate, with versus without curcumin (lane 5 versus 6)

COc1cc(/C=C/C(=O)CC(=O)/C=C/c2ccc(O)c(OC)c2)ccc1O [curcumin]
transcription from the DNA template [1]: not affected
cytotoxicity (viable cells, trypan blue exclusion) (SupT1 cells): not cytotoxic
acetylation of Tat by p300 in vitro [2]: strongly inhibits
acetylation of histones (AUT gel) ([3]; HeLa cells hyperacetylated with TSA and sodium butyrate, 100 μM curcumin): inhibited
unacetylated form of histone H4 and H2B (AUT gel) ([3]; HeLa cells, 75 and 100 μM curcumin, 24 hours): modestly increased
inhibition of H3 acetylation (western blotting) [3, 9]: 6 fold
inhibition of H4 acetylation (western blotting) [3, 9]: 10 fold
inhibition of CBP HAT activity (CBP): potent and specific inhibitor
number of syncytia ([4]; highest concentration of curcumin): no syncytia were seen
number of syncytia ([4]; increasing concentration of curcumin): dose-dependent reduction
p300-mediated acetylation of p53 ([5]; 293 T cells transfected with p53 and p300, 100 μM curcumin): completely inhibits
acetylation status of the endogenous p53 ([5]; 293 T cells transfected with p300 alone, 100 μM curcumin): not altered
Kcat of p300 HAT activity (p300): decreased
Km of p300 HAT activity (p300): decreased
Vmax of p300 HAT activity (p300): decreased
PCAF HAT activity (PCAF): no change
apoptosis (nuclear fragmentation) (HeLa cells): induces the apoptosis
repression of p300 HAT activity dependent chromatin transcription ([6]; 100 μM): ≤ 3 fold
repression of p300 HAT activity dependent chromatin transcription ([6]; 300 μM): ≤ 8 fold
methylation of core histones by HeLa nuclear extract (NE) [7]: no difference
histone methylation by G9a [8]: remains same
